Laboratory results taken from PMC11247486, “Improving the In Vivo Stability of [^52Mn]Mn(II) Complexes with 18-Membered Macrocyclic Chelators for PET Imaging” (Journal of Medicinal Chemistry, 2024).
Where two headings read alike, the source gives them in different places.

Experiments:
[1] = cited from earlier work
[2] = mice; cited from earlier work
[3] = Ex vivo biodistribution after PET/CT; format: in vivo, mice
Method: [^52Mn]Mn-CHXPYAN and [^52Mn]Mn-PYAN radiocomplexes were evaluated in vivo through 90 min dynamic PET/CT imaging of heathy mice followed by an ex vivo biodistribution analysis. Similarly, [^52Mn]MnCl2 was also studied as a control.
[^52Mn]Mn-CHXPYAN and [^52Mn]Mn-PYAN were synthesized with molar specific activities of 80 and 60 MBq/μmol, respectively. 1.04 ± 0.07 MBq (28 ± 2 μCi) of the radiocomplexes in 100 μL injection doses was prepared. The mice (n = 4 per group) were anesthetized with 2.5% isoflurane in oxygen and were injected via the retroorbital sinus. For comparison purposes, 1.04 ± 0.07 MBq (28 ± 2 μCi) of [^52Mn]MnCl2, pH 7 was also injected. After injection, mice were imaged on a Sofie GNEXT PET/CT scanner for a 90 min dynamic scan (9 frames of 10 min each) followed by a 3 min CT at 80 kVp for anatomical reference. PET images were reconstructed via 3D-OSEM (Ordered Subset Expectation Maximization) algorithm (24 subsets and 3 iterations), with random, attenuation, and decay correction, and CT was reconstructed with the modified Feldkamp algorithm and analyzed using VivoQuant 4.0 (Invicro Imaging Service and Software, Boston MA) software. After imaging, mice were euthanized, and organs were collected, weighed, and counted for associated radioactivity on an automated gamma counter. Radioactivity uptake was calculated as the percent injected dose per gram of tissue (% ID/g). Following the reconstruction of the images, ROIs (heart, liver, kidneys, muscle, and bone) were hand-drawn to determine the SUVs using the VivoQuant imaging software.

[4] = cited from earlier work; for pMn: [Mn^2+] = [L] = 10 μM at pH = 7.4
[5] = cited from earlier work; remark: listed apart in the source
[6] = Mn(II) complex, 0.15 M NaCl, 25 °C
[7] = Mn(II) complex, 0.1 M Me4NCl, 25 °C
[8] = healthy mice, 1.5 h postinjection, mean ± SD, n = 4

O=C([O-])CN(CCN(CC(=O)[O-])CC(=O)[O-])CCN(CC(=O)[O-])CC(=O)[O-].[Mn+2] [Mn-DTPA]
time at which complex dissociation in the presence of Cu^2+ is complete (dead time of the stopped-flow technique) [1]: ≤ 2 ms

NC(=O)CN1CCN(CC(N)=O)Cc2cccc(n2)CN(CC(N)=O)CC1 [PC3AM^H]
k1 [1, 6]: 1.7 × 10^–2 M^–1 s^–1 | kd at pH = 7.4 [1, 6]: 4.3 × 10^–10 s^–1

O=C(O)CN1CCN(CC(=O)O)CCN(CC(=O)O)CCN(CC(=O)O)CC1 [DOTA^4–, 1,4,7,10-tetraazacyclododecane-1,4,7,10-tetraacetate]
k0 ([1]; Mn(II) complex of the chelator, 0.1 M Me4NCl, 25 °C): 1.8 × 10^–7 s^–1 | kd at pH = 7.4 ([1]; Mn(II) complex, 0.1 M Me4NCl, 25 °C, calculated using a Zn^2+ concentration of 10^–5 M): 1.8 × 10^–7 ^a s^–1 | k1 [1, 7]: 4.0 × 10^–2 M^–1 s^–1 | k2 [1, 7]: 1.6 × 10^3 M^–2 s^–1 | k3^Zn [1, 7]: 1.5 × 10^–5 M^–1 s^–1 | log*KH [1, 7]: 4.26

[52Mn+2].[Cl-].[Cl-] [[^52Mn]MnCl2, reference compound]
uptake, heart [2]: 16.01 ± 0.1 % ID/g | uptake, kidney [2]: 29.9 ± 9.6 % ID/g | uptake, liver [2]: 9.6 ± 1.9 % ID/g | uptake, pancreas [2]: 4.1 ± 1.1 % ID/g | uptake, spleen [2]: 4.2 ± 0.6 % ID/g | Biodistribution, Blood [3, 8]: 0.60 ± 0.11 % ID/g | Biodistribution, Brain [3, 8]: 0.54 ± 0.26 % ID/g | Biodistribution, Fat [3, 8]: 1.12 ± 0.53 % ID/g | Biodistribution, Femur [3, 8]: 2.42 ± 0.36 % ID/g | Biodistribution, Heart [3, 8]: 12.14 ± 7.31 % ID/g | Biodistribution, Kidney [3, 8]: 38.14 ± 6.06 % ID/g | Biodistribution, Liver [3, 8]: 13.00 ± 6.07 % ID/g | Biodistribution, Muscle [3, 8]: 0.25 ± 0.13 % ID/g | Biodistribution, Skin [3, 8]: 0.31 ± 0.11 % ID/g | Biodistribution, Spleen [3, 8]: 4.83 ± 2.04 % ID/g | Biodistribution, Stomach [3, 8]: 4.78 ± 3.02 % ID/g | Biodistribution, L. Intestine ([3]; mouse, in vivo, 1.5 h): 6.48 ± 1.56 % ID/g | Biodistribution, S. Intestine ([3]; mouse, in vivo, 1.5 h): 14.23 ± 5.70 % ID/g

O=C(O)CN(CCN(CC(=O)O)CC(=O)O)CCN(CC(=O)O)CC(=O)O [DTPA^5–, diethylenetriamine-N,N,N′,N″,N″-pentaacetate, reference compound]
log KMnL ([4]; 0.15 M NaCl, 25°C): 14.54 | pMn ([4]; 0.15 M NaCl): 7.95 | log K1^H ([5]; 0.15 M NaCl, 25°C): 9.97 | log K2^H ([5]; 0.15 M NaCl, 25°C): 8.40 | log K3^H ([5]; 0.15 M NaCl, 25°C): 4.18 | log K4^H ([5]; 0.15 M NaCl, 25°C): 2.68 | log K5^H ([5]; 0.15 M NaCl, 25°C): 2.01 | log K6^H ([5]; 0.15 M NaCl, 25°C): 1.36

O=C(O)CN1CCNCCN(CC(=O)O)CCN(CC(=O)O)CC1 [DO3A^3–, 1,4,7,10-tetraazacyclododecane-1,4,7-triacetate]
k1 [1, 6]: 0.45 M^–1 s^–1 | k2 [1, 6]: 3.2 × 10^2 M^–2 s^–1 | kd at pH = 7.4 [1, 6]: 1.8 × 10^–8 s^–1

C1CNCCNCCNCCNCCNCCN1 [18-ane-N6, 1,4,7,10,13,16-Hexa-Azacyclo-Octadecane, reference compound]
log KMnL ([4]; 0.2 M NaClO4, 25°C): 10.5 | pMn ([4]; 0.2 M NaClO4): 5.05 | log K1^H ([5]; 0.2 M NaClO4, 25°C): 10.19 | log K2^H ([5]; 0.2 M NaClO4, 25°C): 9.23 | log K3^H ([5]; 0.2 M NaClO4, 25°C): 8.73 | log K4^H ([5]; 0.2 M NaClO4, 25°C): 4.09 | log K5^H ([5]; 0.2 M NaClO4, 25°C): 2 | log K6^H ([5]; 0.2 M NaClO4, 25°C): <1
